Laboratory results taken from ChEMBL document CHEMBL1201862, “PubChem BioAssay data set” (2004).
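Assay format: 96-well plates, 48-hour exposure. The concentration for 50% growth inhibition is given as GI50.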 The source made the active and inactive calls. No stated cut-off is given here; in the data, active = GI50 up to about 1.1 µM and inactive = higher.

How the values were obtained:
Assay in all cases: DTP human tumour cell line panel, 48 h
MCF7 = tested on: MCF7
UACC-257 = tested on: UACC-257
CCRF-CEM = tested on: CCRF-CEM
T47D = tested on: T47D
BT-549 = tested on: BT-549
NCI-H460 = tested on: NCI-H460
SW-620 = tested on: SW-620
KM12 = tested on: KM12
SN12C = tested on: SN12C
HT-29 = tested on: HT-29
DU-145 = tested on: DU-145
SNB-19 = tested on: SNB-19
786-0 = tested on: 786-0
SK-MEL-5 = tested on: SK-MEL-5
HCT-116 = tested on: HCT-116
MDA-N = tested on: MDA-N
SK-MEL-28 = tested on: SK-MEL-28
MOLT-4 = tested on: MOLT-4
NCI/ADR-RES = tested on: NCI/ADR-RES
CAKI-1 = tested on: CAKI-1
SR = tested on: SR
HCC 2998 = tested on: HCC 2998
A549 = tested on: A549
MDA-MB-231 = tested on: MDA-MB-231
OVCAR-4 = tested on: OVCAR-4
EKVX = tested on: EKVX
NCI-H522 = tested on: NCI-H522
SK-OV-3 = tested on: SK-OV-3
SF-539 = tested on: SF-539
LOX IMVI = tested on: LOX IMVI
PC-3 = tested on: PC-3
TK-10 = tested on: TK-10
MDA-MB-435 = tested on: MDA-MB-435
RPMI-8226 = tested on: RPMI-8226
HL-60 = tested on: HL-60
HOP-62 = tested on: HOP-62
NCI-H226 = tested on: NCI-H226
OVCAR-5 = tested on: OVCAR-5
SF-268 = tested on: SF-268
OVCAR-3 = tested on: OVCAR-3
NCI-H23 = tested on: NCI-H23
SK-MEL-2 = tested on: SK-MEL-2
HCT-15 = tested on: HCT-15
SF-295 = tested on: SF-295
ACHN = tested on: ACHN
K562 = tested on: K562
IGROV-1 = tested on: IGROV-1
Hs-578T = tested on: Hs-578T
UACC-62 = tested on: UACC-62
M14 = tested on: M14
COLO 205 = tested on: COLO 205
OVCAR-8 = tested on: OVCAR-8
RXF 393 = tested on: RXF 393
Malme-3M = tested on: Malme-3M
U-251 = tested on: U-251
A498 = tested on: A498
UO-31 = tested on: UO-31
SNB-75 = tested on: SNB-75

`Nc1ccc(Nc2c3ccccc3nc3ccccc23)cc1` was tested, and the GI50 (MCF7) was 2.2 µM (inactive), the GI50 (UACC-257) was > 10 µM (inactive) and the GI50 (CCRF-CEM) was 2.09 µM (inactive). For the same compound, the GI50 (T47D) was 6.49 µM (inactive), the GI50 (BT-549) was > 10 µM (inactive) and the GI50 (NCI-H460) was 0.565 µM (active). For the same compound, the GI50 (SW-620) was 2.26 µM (inactive), the GI50 (KM12) was 8.05 µM (inactive) and the GI50 (SN12C) was 2.88 µM (inactive). The GI50 (HT-29) was 3.49 µM (inactive), the GI50 (DU-145) was 4.92 µM (inactive) and the GI50 (SNB-19) was 4.99 µM (inactive). The GI50 (786-0) was 3.1 µM (inactive), the GI50 (SK-MEL-5) was 3.86 µM (inactive) and the GI50 (HCT-116) was 3.15 µM (inactive). The GI50 (MDA-N) was 5.12 µM (inactive), the GI50 (SK-MEL-28) was > 10 µM (inactive) and the GI50 (MOLT-4) was 0.568 µM (active). The GI50 (NCI/ADR-RES) was 4.9 µM (inactive), the GI50 (CAKI-1) was 2.91 µM (inactive) and the GI50 (SR) was > 10 µM (inactive). The GI50 (HCC 2998) was > 10 µM (inactive), the GI50 (A549) was 3.15 µM (inactive) and the GI50 (MDA-MB-231) was 5.81 µM (inactive). For the same compound, the GI50 (OVCAR-4) was 3.83 µM (inactive), the GI50 (EKVX) was 8.51 µM (inactive) and the GI50 (NCI-H522) was 4.79 µM (inactive). The GI50 (SK-OV-3) was 5.5 µM (inactive), the GI50 (SF-539) was 3.7 µM (inactive) and the GI50 (LOX IMVI) was 1.06 µM (active). The GI50 (PC-3) was 4.75 µM (inactive), the GI50 (TK-10) was 5.98 µM (inactive) and the GI50 (MDA-MB-435) was 5.51 µM (inactive). For the same compound, the GI50 (RPMI-8226) was 4.49 µM (inactive), the GI50 (HL-60) was 1.8 µM (inactive) and the GI50 (HOP-62) was 4.32 µM (inactive). The GI50 (NCI-H226) was 1.38 µM (inactive), the GI50 (OVCAR-5) was 5.52 µM (inactive) and the GI50 (SF-268) was > 10 µM (inactive). For the same compound, the GI50 (OVCAR-3) was 3.89 µM (inactive), the GI50 (NCI-H23) was 3.25 µM (inactive) and the GI50 (SK-MEL-2) was 7.87 µM (inactive). The GI50 (HCT-15) was 2.84 µM, the GI50 (SF-295) was 2.62 µM (inactive) and the GI50 (ACHN) was 1.89 µM (inactive). The GI50 (K562) was 4.86 µM (inactive), the GI50 (IGROV-1) was 6.65 µM (inactive) and the GI50 (Hs-578T) was 7.55 µM (inactive). The GI50 (UACC-62) was 1.77 µM (inactive), the GI50 (M14) was 6.95 µM (inactive) and the GI50 (COLO 205) was 3.78 µM (inactive). For the same compound, the GI50 (OVCAR-8) was 3.31 µM (inactive), the GI50 (RXF 393) was > 10 µM (inactive) and the GI50 (Malme-3M) was 2.98 µM (inactive). For the same compound, the GI50 (U-251) was 4.4 µM (inactive).

In the case of `C[N+]12C=CC=C1C(N1CCCC1)c1scc(-c3ccc(F)cc3)c12` (centres undefined), the GI50 (MCF7) is reported as 22 µM (inactive), the GI50 (CCRF-CEM) is reported as 1.89 µM (inactive) and the GI50 (T47D) is reported as 5.93 µM (inactive). The GI50 (BT-549) was 4.89 µM (inactive), the GI50 (SW-620) was 68.2 µM (inactive) and the GI50 (KM12) was 23.8 µM (inactive). The GI50 (SN12C) was 11.1 µM (inactive), the GI50 (HT-29) was 18.3 µM (inactive) and the GI50 (DU-145) was 81.7 µM (inactive). The GI50 (SNB-19) was 15.1 µM (inactive), the GI50 (786-0) was 47.2 µM (inactive) and the GI50 (SK-MEL-5) was 13.5 µM (inactive). For the same compound, the GI50 (A498) was 43.3 µM (inactive), the GI50 (HCT-116) was 46.2 µM (inactive) and the GI50 (MDA-N) was 17.1 µM (inactive). For the same compound, the GI50 (SK-MEL-28) was 66.5 µM (inactive), the GI50 (MOLT-4) was 21.6 µM (inactive) and the GI50 (NCI/ADR-RES) was > 100 µM (inactive). The GI50 (CAKI-1) was > 100 µM (inactive), the GI50 (SR) was 11 µM (inactive) and the GI50 (A549) was 56 µM (inactive). The GI50 (MDA-MB-231) was 42.2 µM (inactive), the GI50 (EKVX) was 92.3 µM (inactive) and the GI50 (NCI-H522) was 17.6 µM (inactive). The GI50 (SK-OV-3) was > 100 µM (inactive), the GI50 (UO-31) was > 100 µM (inactive) and the GI50 (LOX IMVI) was 40.8 µM (inactive). The GI50 (PC-3) was 27.1 µM (inactive), the GI50 (MDA-MB-435) was 30.6 µM (inactive) and the GI50 (RPMI-8226) was 10.4 µM (inactive). For the same compound, the GI50 (HOP-62) was 63.7 µM (inactive), the GI50 (NCI-H226) was 23.5 µM (inactive) and the GI50 (OVCAR-5) was 32.4 µM (inactive). The GI50 (SF-268) was 32.4 µM (inactive), the GI50 (OVCAR-3) was 14.6 µM (inactive) and the GI50 (SK-MEL-2) was 10.5 µM (inactive). For the same compound, the GI50 (SNB-75) was 20.4 µM (inactive), the GI50 (SF-295) was 58.7 µM (inactive) and the GI50 (K562) was 5.74 µM (inactive). The GI50 (IGROV-1) was 13.1 µM (inactive), the GI50 (Hs-578T) was 21.5 µM (inactive) and the GI50 (UACC-62) was 35.4 µM (inactive). For the same compound, the GI50 (M14) was 69.8 µM (inactive), the GI50 (COLO 205) was 18.7 µM (inactive) and the GI50 (OVCAR-8) was 40.4 µM (inactive). For the same compound, the GI50 (RXF 393) was 24.5 µM (inactive), the GI50 (Malme-3M) was 60.4 µM (inactive) and the GI50 (U-251) was 6.71 µM (inactive).

`O=C1c2ccccc2C(=O)c2c1ccc(C(=O)O)c2-c1ccc2ccccc2c1` was tested, and the GI50 (MCF7) was 3.42 µM (inactive), the GI50 (UACC-257) was 49.8 µM (inactive) and the GI50 (CCRF-CEM) was 23.3 µM (inactive). For the same compound, the GI50 (T47D) was 2.22 µM (inactive), the GI50 (BT-549) was 26.4 µM (inactive) and the GI50 (NCI-H460) was 30.1 µM (inactive). The GI50 (SW-620) was 29.4 µM (inactive), the GI50 (KM12) was 27 µM (inactive) and the GI50 (SN12C) was 29.1 µM (inactive). The GI50 (HT-29) was 32.5 µM (inactive), the GI50 (DU-145) was 16.2 µM (inactive) and the GI50 (SNB-19) was 34.7 µM (inactive). The GI50 (786-0) was 28.2 µM (inactive), the GI50 (SK-MEL-5) was 16.9 µM (inactive) and the GI50 (A498) was 29 µM (inactive). The GI50 (HCT-116) was 20.7 µM (inactive), the GI50 (MDA-N) was 26.5 µM (inactive) and the GI50 (SK-MEL-28) was 40.2 µM (inactive). The GI50 (MOLT-4) was 19.1 µM (inactive), the GI50 (NCI/ADR-RES) was 30.8 µM (inactive) and the GI50 (CAKI-1) was 29.3 µM (inactive). For the same compound, the GI50 (SR) was 16.6 µM (inactive), the GI50 (HCC 2998) was 25.9 µM (inactive) and the GI50 (A549) was 30.5 µM (inactive). For the same compound, the GI50 (MDA-MB-231) was 23.2 µM (inactive), the GI50 (OVCAR-4) was 30.8 µM (inactive) and the GI50 (EKVX) was 20.6 µM (inactive). For the same compound, the GI50 (NCI-H522) was 23.7 µM (inactive), the GI50 (SK-OV-3) was 31 µM (inactive) and the GI50 (SF-539) was 25.8 µM (inactive). For the same compound, the GI50 (UO-31) was 21.2 µM (inactive), the GI50 (LOX IMVI) was 18.9 µM (inactive) and the GI50 (PC-3) was 24.5 µM (inactive). For the same compound, the GI50 (TK-10) was 61.2 µM (inactive), the GI50 (MDA-MB-435) was 23.8 µM (inactive) and the GI50 (RPMI-8226) was 27.7 µM (inactive). For the same compound, the GI50 (HL-60) was 27.9 µM (inactive), the GI50 (HOP-62) was 32.2 µM (inactive) and the GI50 (NCI-H226) was 21.8 µM (inactive). For the same compound, the GI50 (OVCAR-5) was 22.5 µM (inactive), the GI50 (SF-268) was 28 µM (inactive) and the GI50 (OVCAR-3) was 18.2 µM (inactive). The GI50 (NCI-H23) was 18.6 µM (inactive), the GI50 (SK-MEL-2) was 19.1 µM (inactive) and the GI50 (HCT-15) was 19.6 µM. For the same compound, the GI50 (SF-295) was 28.5 µM (inactive), the GI50 (ACHN) was 30.8 µM (inactive) and the GI50 (K562) was 25.9 µM (inactive). For the same compound, the GI50 (IGROV-1) was 13.7 µM (inactive), the GI50 (Hs-578T) was 23.9 µM (inactive) and the GI50 (UACC-62) was 18.2 µM (inactive). The GI50 (M14) was 20.5 µM (inactive), the GI50 (COLO 205) was 10.4 µM (inactive) and the GI50 (OVCAR-8) was 33.5 µM (inactive). The GI50 (Malme-3M) was 24.1 µM (inactive) and the GI50 (U-251) was 21.9 µM (inactive).
